Laboratory results reported in ChEMBL document CHEMBL4765458, “Synthesis and biological evaluation of organoselenium (NSAIDs-SeCN and SeCF) derivatives as potential anticancer agents” (Eur J Med Chem, 2020).
Active and inactive are the calls of the source. The calls are words filed in the database; no cut-off is given here.

Key:
[1] = Antioxidant activity assessed as DPPH radical scavenging activity incubated for 30 mins under dark condition relative to control; format: functional; parameters: concentration or dose not given beside the values
[2] = Antioxidant activity assessed as bleomycin-Fe2+-induced DNA degradation by measuring absorbance at 0.1 mg/ml after 1 hr; format: functional
SW480 [3] = assay: Cytotoxicity against human SW480 cells assessed as reduction in cell viability measured after 48 hrs by MTT assay; format: functional, cell-based; conditions: SW480, 48 h
HeLa [4] = assay: Cytotoxicity against human HeLa cells assessed as reduction in cell viability measured after 72 hrs by MTT assay; format: functional, cell-based
MCF7 [5] = assay: Induction of apoptosis in human MCF7 cells assessed as down regulation of Bcl-2 expression at IC50 measured after 48 hrs by ELISA relative to control; format: functional
HeLa [6] = assay: Cytotoxicity against human HeLa cells assessed as reduction in cell viability measured after 48 hrs by MTT assay; format: functional, cell-based
SW480 [7] = assay: Cytotoxicity against human SW480 cells assessed as reduction in cell viability measured after 72 hrs by MTT assay; format: functional, cell-based; conditions: SW480, 72 h
HeLa [8] = assay: Cytotoxicity against human HeLa cells assessed as reduction in cell viability measured after 24 hrs by MTT assay; format: functional, cell-based
[9] = Antioxidant activity assessed as GPx-like activity by measuring oxidation of NADPH to NADP+ by NADPH-reductase coupled assay; format: functional
SW480 [10] = assay: Cytotoxicity against human SW480 cells assessed as reduction in cell viability measured after 24 hrs by MTT assay; format: functional, cell-based; conditions: SW480, 24 h
A549 [11] = assay: Cytotoxicity against human A549 cells assessed as reduction in cell viability measured after 72 hrs by MTT assay; format: functional, cell-based; conditions: A549, 72 h
MCF7 [12] = assay: Cytotoxicity against human MCF7 cells assessed as reduction in cell viability measured after 24 hrs by MTT assay; format: functional, cell-based; conditions: MCF7, 24 h
A549 [13] = assay: cells; conditions: Homo sapiens, A549, 48 h
Description: Cytotoxicity against human A549 cells assessed as reduction in cell viability measured after 48 hrs by MTT assay

MCF7 [14] = assay: Induction of apoptosis in human MCF7 cells assessed as up regulation of caspase-3 expression at IC50 measured after 48 hrs by ELISA relative to control; format: functional
MCF7 [15] = assay: Cytotoxicity against human MCF7 cells assessed as reduction in cell viability measured after 72 hrs by MTT assay; format: functional, cell-based; conditions: MCF7, 72 h
MCF7 [16] = assay: Induction of apoptosis in human MCF7 cells assessed as up regulation of IL-2 expression at IC50 measured after 48 hrs by ELISA relative to control; format: functional
A549 [17] = assay: Cytotoxicity against human A549 cells assessed as reduction in cell viability measured after 24 hrs by MTT assay; format: functional, cell-based; conditions: A549, 24 h
MCF7 [18] = assay: Cytotoxicity against human MCF7 cells assessed as reduction in cell viability measured after 48 hrs by MTT assay; format: functional, cell-based; conditions: MCF7, 48 h

Row | SMILES | inhibition [1] [%] | deltaA [2] | IC50 (SW480 [3]) [µM] | IC50 (HeLa [4]) [µM] | Activity (MCF7 [5]) | IC50 (HeLa [6]) [µM] | IC50 (SW480 [7]) [µM] | IC50 (HeLa [8]) [µM] | Activity [9] | IC50 (SW480 [10]) [µM] | IC50 (A549 [11]) [µM] | IC50 (MCF7 [12]) [µM] | IC50 (A549 [13]) [µM] | fold change (FC) (MCF7 [14]) | IC50 (MCF7 [15]) [µM] | Activity (MCF7 [16]) | IC50 (A549 [17]) [µM] | IC50 (MCF7 [18]) [µM] | Activity (MCF7 [14])
1 | O=C1O[C@H]([C@@H](O)CO)C(O)=C1O | 92.4 | 295 |  |  |  |  |  |  |  |  |  |  |  |  |  |  |  |  | 
2 | CC(=O)Oc1ccccc1C(=O)NCCC[Se]C(F)(F)F | 72.5 |  | 7.2 | 15.4 | >50% | 26.3 | 7.8 | 28.7 | Active | 8.2 | 17.3 | 3.5 | 18.6 | 5 | 4.4 | Active | 16.4 | 4.2 | 
3 | CC(=O)Oc1ccccc1C(=O)NCCC[Se]C#N | 52.1 |  | 7.4 | 18.3 | Active | 28.4 | 8.2 | 31.4 | Active | 9.3 | 22.3 | 6.8 | 22.6 |  | 10.3 | Active | 18.4 | 8.6 | Active
